Results reported in the supplement of paper PMC10307832.

Key:
Assay in all cases: relative viability (nuclei count vs DMSO), 5 days (fraction); higher = more cells survive
[1] = compound: O=c1ncccn1[C@@H]1O[C@H](CO)[C@@H](O)[C@H]1O [Zebularine] + NC(=O)Nc1cc(-c2cccc(F)c2)sc1C(=O)N[C@H]1CCCNC1 [AZD7762] (partner 0.2 µM)
In short: (§1)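 One day after seeding in 1536-well plates, lung cancer cell lines were dosed by pin tool. Dosing was either single-drug or a fixed anchor-drug dose plus five library-drug doses (not always all listed) in √10 steps. After 5 days, nuclei were stained in one fix-and-stain step and counted on 4× images, and relative viability is the nuclei count of treated wells over that of vehicle wells, given as the median of duplicate plates.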

[2] = compound: CC(C)CCN1c2nc(Nc3cc(F)c(O)c(F)c3)ncc2N(C)C(=O)C1C [BI-D1870] + CC(C)C[C@H](NC(=O)[C@H](Cc1ccccc1)NC(=O)c1cnccn1)B(O)O [Bortezomib] (partner 0.002 µM)
In short: as §1

[3] = compound: CC(C)CCN1c2nc(Nc3cc(F)c(O)c(F)c3)ncc2N(C)C(=O)C1C [BI-D1870] + C[C@@H](Oc1cc(-c2cnn(C3CCNCC3)c2)cnc1N)c1c(Cl)ccc(F)c1Cl [Crizotinib] (partner 1 µM)
In short: as §1

[4] = compound: O=c1ncccn1[C@@H]1O[C@H](CO)[C@@H](O)[C@H]1O [Zebularine] + CC(C)C[C@H](NC(=O)[C@H](Cc1ccccc1)NC(=O)c1cnccn1)B(O)O [Bortezomib] (partner 0.002 µM)
In short: as §1

Row | Cell Line | relative viability ([1]; first compound 1 µM) | relative viability ([1]; first compound 3.162 µM) | relative viability ([1]; first compound 10 µM) | relative viability ([1]; first compound 31.62 µM) | relative viability ([1]; first compound 100 µM) | relative viability ([2]; first compound 0.04 µM) | relative viability ([2]; first compound 0.1265 µM) | relative viability ([2]; first compound 0.4 µM) | relative viability ([2]; first compound 1.265 µM) | relative viability ([2]; first compound 4 µM) | relative viability ([3]; first compound 0.04 µM) | relative viability ([3]; first compound 0.1265 µM) | relative viability ([3]; first compound 0.4 µM) | relative viability ([3]; first compound 1.265 µM) | relative viability ([3]; first compound 4 µM) | relative viability ([4]; first compound 1 µM) | relative viability ([4]; first compound 3.162 µM) | relative viability ([4]; first compound 10 µM) | relative viability ([4]; first compound 31.62 µM) | relative viability ([4]; first compound 100 µM)
1 | NCI-H3122 | 1.05 | 1.12 | 0.846 | 1.04 | 1.02 | 1 | 0.932 | 1.05 | 1.03 | 0.996 | 0.283 | 0.275 | 0.293 | 0.28 | 0.325 | 1.04 | 0.991 | 1 | 1.05 | 1.08
2 | NCI-H1975 | 0.747 | 0.748 | 0.549 | 0.499 | 0.345 | 0.487 | 0.44 | 0.386 | 0.339 | 0.175 | 1.05 | 0.988 | 1.01 | 1.03 | 0.484 | 0.403 | 0.338 | 0.288 | 0.267 | 0.233
3 | NCI-H1944 | 0.598 | 0.537 | 0.451 | 0.525 | 0.258 |  |  |  |  |  | 1.19 | 0.978 | 1.05 | 1.36 | 1.11 |  |  |  |  | 
4 | LU99A | 0.348 | 0.28 | 0.267 | 0.24 | 0.115 | 1.34 | 1.03 | 1.12 | 1.06 | 1.02 | 0.692 | 0.539 | 0.552 | 0.547 | 0.508 | 1.39 | 1.08 | 0.638 | 0.421 | 0.199
5 | SW 1573 |  |  |  |  |  | 1.08 | 0.907 | 0.883 | 0.986 | 0.577 | 1.01 | 0.808 | 0.876 | 0.905 | 0.597 | 1.13 | 0.896 | 0.78 | 1.07 | 0.584
6 | NCI-H2347 | 0.858 | 0.788 | 0.609 | 0.462 | 0.305 | 1.04 | 0.856 | 1.14 | 1.24 | 0.915 | 0.812 | 0.674 | 0.7 | 0.662 | 0.577 | 0.768 | 0.925 | 0.594 | 0.582 | 0.542
7 | NCI-H2009 |  |  |  |  |  | 1.03 | 0.934 | 1.01 | 0.866 | 0.246 | 1.06 | 0.996 | 0.962 | 0.609 | 0.457 | 1.04 | 0.928 | 0.876 | 0.609 | 0.339
8 | COR-L23 |  |  |  |  |  | 1.28 | 0.844 | 0.979 | 0.926 | 1.03 | 0.703 | 0.639 | 0.692 | 0.72 | 0.544 | 0.928 | 1.13 | 0.363 | 0.318 | 0.251
9 | NCI-H1299 |  |  |  |  |  | 1 | 0.985 | 1.02 | 0.959 | 0.839 | 0.971 | 0.902 | 0.965 | 0.885 | 0.814 | 1.01 | 1.06 | 0.969 | 1.08 | 0.747
10 | NCI-H1650 |  |  |  |  |  | 0.214 | 0.223 | 0.209 | 0.184 | 0.186 | 0.984 | 0.905 | 0.936 | 0.777 | 0.801 | 0.226 | 0.191 |  | 0.2 | 0.199
11 | NCI-H1793 | 0.499 | 0.676 | 0.326 | 0.407 | 0.359 |  |  |  |  |  |  |  |  |  |  |  |  |  |  | 
12 | COR-L 105 |  |  |  |  |  | 0.835 | 0.831 | 0.88 | 0.774 | 0.713 | 0.858 | 0.79 | 0.777 | 0.754 | 0.574 | 0.978 | 0.771 | 0.694 | 1.21 | 0.843
13 | NCI-H2228 |  |  |  |  |  | 1.36 | 0.999 | 1.37 | 1.05 | 0.401 | 0.645 | 0.479 | 0.374 | 0.435 | 0.329 | 1.17 | 0.924 | 0.46 | 0.837 | 0.354
14 | SW 900 | 0.65 | 0.57 |  | 0.818 | 0.832 |  |  |  |  |  |  |  |  |  |  |  |  |  |  | 
15 | NCI-H661 |  |  |  |  |  | 0.801 | 0.67 | 0.695 | 1.01 | 0.808 | 1.24 | 0.963 | 0.973 | 1.05 | 0.902 | 0.729 | 0.824 | 0.709 | 0.716 | 0.785
16 | NCI-H1563 |  |  |  |  |  | 0.908 | 0.81 | 0.802 | 0.852 | 0.784 | 0.878 | 0.893 | 0.842 | 0.905 | 0.905 | 0.826 | 1.02 | 0.874 | 1.04 | 0.928
17 | A549 |  |  |  |  |  |  |  |  |  |  | 0.873 | 0.708 | 0.76 | 0.618 | 0.158 |  |  |  |  | 
18 | NCI-H2342 | 0.512 | 0.415 | 0.399 | 0.505 | 0.429 |  |  |  |  |  |  |  |  |  |  |  |  |  |  | 
19 | NCI-H2170 | 0.914 | 0.982 | 0.771 | 0.938 | 0.393 |  |  |  |  |  | 1.31 | 1.06 | 1.24 | 1.24 | 1.06 |  |  |  |  | 
20 | NCI-H522 | 0.76 | 0.821 | 0.767 | 0.858 | 0.841 |  |  |  |  |  |  |  |  |  |  |  |  |  |  | 
21 | NCI-H1395 | 0.402 | 0.372 | 0.397 | 0.37 | 0.435 |  |  |  |  |  |  |  |  |  |  |  |  |  |  | 
22 | IA-LM |  |  |  |  |  | 1.05 | 0.842 | 0.756 | 0.764 | 0.204 | 1.19 | 0.942 | 0.845 | 0.569 | 0.176 | 0.63 | 0.892 | 0.617 | 1.03 | 0.672
23 | NCI-H358 | 0.591 | 0.386 | 0.484 | 0.451 | 0.333 |  |  |  |  |  | 0.772 | 0.598 | 0.475 | 0.456 | 0.213 |  |  |  |  | 
24 | EBC-1 |  |  |  |  |  | 0.685 | 0.435 | 0.417 | 0.323 | 0.123 | 0.16 | 0.182 | 0.209 | 0.188 | 0.134 | 0.528 | 0.547 | 0.508 | 0.572 | 0.623
